The results in this text go back to patent publication US20210255193A1, “LYSINE REACTIVE PROBES AND USES THEREOF” (The Scripps Research Institute, priority 2017, published 2021).

Assay in all cases: competitive isoTOP-ABPP
Experiment [1] concerns the target T1, TPD52L2 Tumor protein D54 (Homo sapiens, UniProt O43399).
T1 construct: isoTOP-ABPP experiments performed in cell lysates (in vitro); endogenous in cells; host or cells: MDA-MB-231 soluble lysate
It counts as binding. Conditions: for isoTOP-ABPP ratio (R) at liganded lysine O43399_K90: 50 uM, in vitro, sol, 231. As to the method:
(§1) In vitro covalent fragment treatment for isoTOP-ABPP. All compounds were made up as solutions in DMSO (100×) and were used at a final concentration of 50 μM for activated esters and 100 μM for guanidinylating agents. For each profiling sample, 0.5 ml of lysate was treated with 5 μl of the 100× compound stock solution or 5 μl of DMSO. Samples were treated with activated esters for
(§2) STP-alkyne labeling and click chemistry. For concentration-dependent reactivity measurements by isoTOP-ABPP, 0.5 ml proteome aliquots were treated at ambient temperature with 1 mM STP-alkyne 1 (5 μl of 100 mM stock in DMSO) and 0.1 mM STP alkyne 1 (5 μl of 10 mM stock in DMSO), respectively. For competitive isoTOP-ABPP, after in vitro fragment treatment (detailed above), the samples were labeled for 1 h at ambient temperature with 0.1 mM STP-alkyne 1 (5 μl of 10 mM stock in DMSO). Samples were conjugated by copper-mediated azide-alkyne cycloaddition (CuAAC) to either the light (1 mM STP-alkyne or fragment treated) or heavy (0.1 mM STP-alkyne or DMSO treated) TEV tags (10 μl of 5 mM stocks in DMSO, final concentration=100 μM) using tris(2-carboxyethyl)phosphine hydrochloride
(§3) R value calculation and processing. The ratios of light and heavy MS1 peaks for each unique peptide were quantified with a CIMAGE software using default parameters (3 MS1 acquisitions per peak and signal to noise threshold set to 2.5). For reactivity measurements by isoTOP-ABPP, the R value was calculated from the ratio of MS1 peak areas, comparing the 1 mM STP alkyne sample (light TEV tag) with the 0.1 mM STP alkyne sample (heavy TEV tag). For competitive isoTOP-ABPP, the R value was calculated from the ratio of MS1 peak areas, comparing the DMSO treated sample (heavy TEV tag) with the compound treated sample (light TEV tag). […] Ratios for unique peptide entries are calculated for each experiment; overlapping peptides with the same modified lysine (for example, different charge states, MudPIT chromatographic steps or tryptic termini) are grouped together and the median ratio is reported as the final ratio (R). The peptide ratios reported by CIMAGE were further filtered to ensure the removal or correction of low-quality ratios in each individual data set. The quality filters applied were the following: removal of half tryptic peptides; for ratios with high standard deviations from the median (90% of the median or above) the lowest ratio was taken instead of the median; removal of peptides with R=20 and only a single MS2 event triggered during the elution of the parent ion; manual annotation of all the peptides with ratios of 20, removing any peptides with low quality elution profiles that remained after the previous curation steps (only done for competitive isoTOP-ABPP).
(§4) Cross-data processing for fragment screening. For compound treated samples, biological replicates of the same condition were averaged, if the standard deviation was below 60% of the mean; otherwise, for lysines with at least one R value <4 for a particular compound, the lowest value of the ratio set was taken. For lysines, where all R values for a particular compound were ≥4, the average was reported. For peptides containing several possible modified lysines, the lysine with the highest number of quantification events was used for analysis and the remaining, redundant peptides were reported as alternative modification sites. Peptides included in the aggregate dataset (those used for further bioinformatics and statistical analyses) were required to have been quantified in 2 experiments for competitive isoTOP-ABPP. Lysines were categorized as liganded, if they had at least one ratio R≥4 (hit fragments). For liganded lysines with R=20 for all liganding events, lysines were required to have been quantified with R=20 in two separate experiments and were further required to have been quantified with R<20 in one additional experiment.

The next experiment addresses T2, ADK Adenosine kinase (Homo sapiens, UniProt P55263).
T2 construct: isoTOP-ABPP experiments performed in cell lysates (in vitro); endogenous in cells; host or cells: soluble proteome of human cancer cell lines (MDA-MB-231, Ramos, Jurkat)
It counts as binding. The following applies: for isoTOP-ABPP ratio (R) at liganded lysine P55263_K88: 50 uM, in vitro, sol, 231. As to the method:
as §1, §2, §3, §4

Experiment [2] concerns the target T3, ABCE1 ATP-binding cassette sub-family E member 1 (Homo sapiens, UniProt P61221).
T3 construct: isoTOP-ABPP experiments performed in cell lysates (in vitro); endogenous in cells; host or cells: soluble proteome of human cancer cell lines (MDA-MB-231, Ramos, Jurkat)
Conditions: for isoTOP-ABPP ratio (R) at liganded lysine P61221_K191 / isoTOP-ABPP ratio (R) at liganded lysine P61221_K478: 50 uM, in vitro, sol, 231. As to the method: as §1, §2, §3, §4

The target of experiment [3] is T4, PFKP 6-phosphofructokinase type C (Homo sapiens, UniProt Q01813).
T4 construct: isoTOP-ABPP experiments performed in cell lysates (in vitro); endogenous in cells
T4 sequence (Q01813 1-784): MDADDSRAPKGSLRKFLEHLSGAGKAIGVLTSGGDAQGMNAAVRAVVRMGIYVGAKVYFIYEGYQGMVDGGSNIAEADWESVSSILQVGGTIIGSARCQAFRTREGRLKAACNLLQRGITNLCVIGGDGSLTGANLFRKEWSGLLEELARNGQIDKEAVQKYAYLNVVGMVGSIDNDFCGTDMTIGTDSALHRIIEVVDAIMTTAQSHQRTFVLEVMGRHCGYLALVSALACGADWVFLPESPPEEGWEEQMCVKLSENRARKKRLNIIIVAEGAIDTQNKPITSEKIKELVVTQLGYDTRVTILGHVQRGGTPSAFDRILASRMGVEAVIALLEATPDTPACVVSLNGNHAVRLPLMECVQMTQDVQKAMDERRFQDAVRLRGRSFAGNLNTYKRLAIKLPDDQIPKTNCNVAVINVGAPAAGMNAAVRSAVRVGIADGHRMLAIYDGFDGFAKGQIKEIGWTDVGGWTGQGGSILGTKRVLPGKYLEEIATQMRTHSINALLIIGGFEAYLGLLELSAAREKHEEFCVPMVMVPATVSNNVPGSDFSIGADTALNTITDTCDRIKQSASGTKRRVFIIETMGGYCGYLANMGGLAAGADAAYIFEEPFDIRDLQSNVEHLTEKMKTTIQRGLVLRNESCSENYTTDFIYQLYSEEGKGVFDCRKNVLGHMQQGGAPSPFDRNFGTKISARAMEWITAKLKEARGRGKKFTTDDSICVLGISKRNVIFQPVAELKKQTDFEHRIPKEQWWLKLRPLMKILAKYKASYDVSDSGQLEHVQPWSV
It is filed as binding. The following applies: for isoTOP-ABPP ratio (R) at liganded lysine Q01813_K688: 50 uM, in vitro, sol, 231. As to the method:
as §1, §2, §3, §4

T1 sequence (O43399 whole entry): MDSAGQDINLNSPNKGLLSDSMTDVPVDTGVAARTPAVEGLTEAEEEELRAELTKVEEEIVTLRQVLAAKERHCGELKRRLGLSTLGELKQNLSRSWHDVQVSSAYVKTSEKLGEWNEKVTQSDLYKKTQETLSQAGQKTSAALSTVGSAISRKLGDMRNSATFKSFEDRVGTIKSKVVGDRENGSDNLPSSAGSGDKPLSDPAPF
T2 sequence (P55263 whole entry): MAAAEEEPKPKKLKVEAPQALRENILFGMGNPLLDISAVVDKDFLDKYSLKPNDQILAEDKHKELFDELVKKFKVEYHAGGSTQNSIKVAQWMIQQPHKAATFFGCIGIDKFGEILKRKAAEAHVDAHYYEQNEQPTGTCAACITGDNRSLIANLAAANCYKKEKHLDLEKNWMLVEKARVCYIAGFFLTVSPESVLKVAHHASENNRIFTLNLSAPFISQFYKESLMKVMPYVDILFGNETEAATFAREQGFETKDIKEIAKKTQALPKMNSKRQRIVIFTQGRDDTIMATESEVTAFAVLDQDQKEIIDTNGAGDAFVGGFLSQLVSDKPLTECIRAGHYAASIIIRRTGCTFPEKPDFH

Take `O=C(Oc1ccc([N+](=O)[O-])cc1[N+](=O)[O-])C(c1ccccc1)(c1ccccc1)c1ccccc1` [fragment 42, 2,4-Dinitrophenyl 2,2,2-triphenylacetate]: in experiment [1], the “isoTOP-ABPP ratio (R) at liganded lysine O43399_K90” value is 1.0. Also, the “isoTOP-ABPP ratio (R) at liganded lysine P55263_K88” value on ADK Adenosine kinase turned out to be 1.0. In addition, in experiment [2], the “isoTOP-ABPP ratio (R) at liganded lysine P61221_K191” value was 1.0 and the “isoTOP-ABPP ratio (R) at liganded lysine P61221_K478” value is given as 1.1. Moreover, the “isoTOP-ABPP ratio (R) at liganded lysine Q01813_K688” value in experiment [3] was found to be 1.0.
Consider `CC(=O)Oc1ccc([N+](=O)[O-])cc1[N+](=O)[O-]` [fragment 43, 2,4-Dinitrophenyl acetate], for which the “isoTOP-ABPP ratio (R) at liganded lysine O43399_K90” value in experiment [1] is 1.1. Besides, the “isoTOP-ABPP ratio (R) at liganded lysine P55263_K88” value at ADK Adenosine kinase came out at 0.9. In experiment [2], the “isoTOP-ABPP ratio (R) at liganded lysine P61221_K191” value turned out to be 1.3 and the “isoTOP-ABPP ratio (R) at liganded lysine P61221_K478” value was found to be 1.4. In addition, in experiment [3], the “isoTOP-ABPP ratio (R) at liganded lysine Q01813_K688” value was determined as 3.9.
Turning to `N#Cc1ccc(C(=O)Oc2ccc([N+](=O)[O-])cc2[N+](=O)[O-])cc1` [fragment 44, 2,4-Dinitrophenyl 4-cyanobenzoate], the “isoTOP-ABPP ratio, lysine O43399_K90” value in experiment [1] (50 uM_231_sol_in vitro) is recorded as 1.1. Moreover, the “isoTOP-ABPP ratio, lysine P55263_K88” value on ADK Adenosine kinase (50 uM_231_sol_in vitro) came out at 0.5. Besides, in experiment [2] (50 uM_231_sol_in vitro), the “isoTOP-ABPP ratio, lysine P61221_K191” value is 1.1 and the “isoTOP-ABPP ratio, lysine P61221_K478” value is given as 0.9. The “isoTOP-ABPP ratio, lysine Q01813_K688” value in experiment [3] (50 uM_231_sol_in vitro) came to 4.2.
Turning to `O=C(CCc1ccc2c(c1)OCO2)Oc1ccc([N+](=O)[O-])cc1[N+](=O)[O-]` [fragment 45, 2,4-Dinitrophenyl 3-(benzo[d][1,3]dioxol-5-yl)propanoate], the “isoTOP-ABPP ratio, lysine O43399_K90” value in experiment [1] (50 uM_231_sol_in vitro) came out at 1.5. In addition, at ADK Adenosine kinase (50 uM_231_sol_in vitro), the “isoTOP-ABPP ratio, lysine P55263_K88” value turned out to be 1.3. In experiment [2] (50 uM_231_sol_in vitro), the “isoTOP-ABPP ratio, lysine P61221_K191” value worked out at 1.1 and the “isoTOP-ABPP ratio, lysine P61221_K478” value is on record as 1.5. In experiment [3] (50 uM_231_sol_in vitro), the “isoTOP-ABPP ratio, lysine Q01813_K688” value is 20.0.
As for `O=C(ON1C(=O)CCC1=O)c1cc(C(F)(F)F)cc(C(F)(F)F)c1` [fragment 46, 3,5-Bis(trifluoromethyl)benzoic acid NHS ester], the “isoTOP-ABPP ratio, lysine O43399_K90” value in experiment [1] (50 uM_231_sol_in vitro) was 1.4. For the same compound, the “isoTOP-ABPP ratio, lysine P55263_K88” value at ADK Adenosine kinase (50 uM_231_sol_in vitro) worked out at 0.8. Besides, in experiment [2] (50 uM_231_sol_in vitro), the “isoTOP-ABPP ratio, lysine P61221_K191” value came to 20.0 and the “isoTOP-ABPP ratio, lysine P61221_K478” value turned out to be 11.4. Moreover, the “isoTOP-ABPP ratio, lysine Q01813_K688” value in experiment [3] (50 uM_231_sol_in vitro) amounted to 1.7.
On the same counts, the results for `O=C(Oc1c(F)c(F)c(C(F)(F)F)c(F)c1F)c1cc(C(F)(F)F)cc(C(F)(F)F)c1` [fragment 47, 2,3,5,6-Tetrafluoro-4-(trifluoromethyl)phenyl 3,5-bis(trifluoromethyl)benzoate] are 2.0, 0.8, 1.7, 1.4 and 1.0.
Turning to `O=C(Oc1c(F)c(F)cc(F)c1F)c1cc(C(F)(F)F)cc(C(F)(F)F)c1` [fragment 48, 2,3,5,6-Tetrafluorophenyl 3,5-bis(trifluoromethyl)benzoate], the “isoTOP-ABPP ratio, lysine O43399_K90” value in experiment [1] (50 uM_231_sol_in vitro) was found to be 1.8. Moreover, on ADK Adenosine kinase (50 uM_231_sol_in vitro), the “isoTOP-ABPP ratio, lysine P55263_K88” value is on record as 0.9. For the same compound, in experiment [2] (50 uM_231_sol_in vitro), the “isoTOP-ABPP ratio, lysine P61221_K191” value is 1.0 and the “isoTOP-ABPP ratio, lysine P61221_K478” value is on record as 1.1. Besides, the “isoTOP-ABPP ratio, lysine Q01813_K688” value in experiment [3] (50 uM_231_sol_in vitro) is on record as 1.4.
For the compound `COC(=O)NC(=NC(=O)OCC1c2ccccc2-c2ccccc21)n1cccn1` [fragment 49, N-Methoxycarbonyl-N′-9-fluorenylmethoxycarbonyl-pyrazole-1-carboxamidine], in experiment [1] (100 uM_231_sol_in vitro), the “isoTOP-ABPP ratio, lysine O43399_K90” value came to 2.9. Besides, the “isoTOP-ABPP ratio, lysine P55263_K88” value on ADK Adenosine kinase (100 uM_231_sol_in vitro) amounted to 1.2. In addition, in experiment [2] (100 uM_231_sol_in vitro), the “isoTOP-ABPP ratio, lysine P61221_K191” value was determined as 20.0 and the “isoTOP-ABPP ratio, lysine P61221_K478” value is 1.0. Further, the “isoTOP-ABPP ratio, lysine Q01813_K688” value in experiment [3] (100 uM_231_sol_in vitro) turned out to be 9.6.
The matching figures for `CC(C)(C)OC(=O)N=C(NC(=O)OC(C)(C)C)n1cccn1` [fragment 50, reference compound]: 2.2, 1.0, 14.1, 2.1 and 18.2.
For `NC(=O)c1cc(C(F)(F)F)cc(C(F)(F)F)c1` [fragment 51, reference compound], the “isoTOP-ABPP ratio, lysine O43399_K90” value in experiment [1] (50 uM_231_sol_in vitro) worked out at 1.0. Further, at ADK Adenosine kinase (50 uM_231_sol_in vitro), the “isoTOP-ABPP ratio, lysine P55263_K88” value worked out at 0.8. In experiment [2] (50 uM_231_sol_in vitro), the “isoTOP-ABPP ratio, lysine P61221_K191” value turned out to be 1.0 and the “isoTOP-ABPP ratio, lysine P61221_K478” value amounted to 0.9. Besides, the “isoTOP-ABPP ratio, lysine Q01813_K688” value in experiment [3] (50 uM_231_sol_in vitro) is recorded as 0.9.
